Measured values: patent US4221737A, “1-(Alkynyl)amino-1-(mercaptoalkyl)amino ethylenes” (Bristol-Myers Company, priority 1979, dated 1980)

Legend:
histamine H2-receptors [1] = biological target: T1, histamine H2-receptors (Cavia porcellus, UniProt P47747); assay: Histamine H2-receptor antagonism, isolated guinea pig right atria; conditions: for Histamine ED50 after test compound / Concentration-Response Curve Displacement Factor: test compound 3 × 10^-5 M; for Histamine ED50 after test compound: 30 minute incubation, 95% limits: cimetidine 3.9-5.9 (N=8), Compound XII 3.10-5.98 (N=2), BL-5949 12.50-15.90 (N=5); for Concentration-Response Curve Displacement Factor: displacement of histamine curve to the right
T1 construct: The spontaneously beating right atrium was dissected free from other tissues; from tissue; host or cells: isolated right atrium of male Hartley guinea pigs
T1 sequence (P47747 whole entry): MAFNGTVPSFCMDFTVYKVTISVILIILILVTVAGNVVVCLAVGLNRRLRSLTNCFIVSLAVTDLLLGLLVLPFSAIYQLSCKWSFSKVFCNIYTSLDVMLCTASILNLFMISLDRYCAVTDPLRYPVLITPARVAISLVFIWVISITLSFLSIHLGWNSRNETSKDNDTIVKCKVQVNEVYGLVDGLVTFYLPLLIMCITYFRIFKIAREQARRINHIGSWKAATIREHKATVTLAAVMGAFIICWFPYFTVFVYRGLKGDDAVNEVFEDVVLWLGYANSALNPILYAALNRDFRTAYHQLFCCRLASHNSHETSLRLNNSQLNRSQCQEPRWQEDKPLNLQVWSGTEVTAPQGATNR
Description: Subsequent investigations by Hughes and Coret, Proc. Soc. […] Black et al., Agents and Actions, 3, 133 (1973) and Brimblecombe et al., Fed. […] The present comparative studies were carried out using a modification of the procedure reported by Reinhardt et al., Agents and Actions, 4, 217 (1974).
Male Hartley strain guinea pigs (350-450 gm.) were sacrificed by a blow on the head. The heart was excised and placed in a Petri dish of oxygenated (95% O2, 5% CO2) modified Krebs solution (g./liter: NaCl 6.6, KCl 0.35, MgSO4.7 H2 O 0.295, KH2 PO4 0.162, CaCl2 0.238, NaHCO3 2.1 and dextrose 2.09). The spontaneously beating right atrium was dissected free from other tissues and a silk thread (4-0) attached to each end. The atrium was suspended in a 20 ml. muscle chamber containing oxygenated modified Krebs solution maintained at 32° C. Atrial contractions were recorded isometrically by means of a Grass FT 0.03 force displacement transducer and recordings of contractile force and rate were made with a Beckman RP Dynograph.
A resting tension of 1 g. was applied to the atrium and it was allowed to equilibrate for 1 hour.
Concentration-response curve displacement factors were calculated as follows: [formula] […] [formula]

[2] = clinical; cited from earlier work
[3] = cited from earlier work
H2-receptor = conditions: cited from earlier work
[4] = tested on: histamine-induced gastric acid output; assay: Gastric antisecretory activity in the gastric fistula dog (histamine-induced gastric acid output); type: in vivo, dog (beagle); conditions: for Percent Inhibition Acid Output: 1.5 μMole/kg iv (BL-5949: one dog at this dose)
Description: Thomas type [Thomas, J. E., Proc. Soc. exp. Biol. Med., 46, 260 (1941)] stainless steel cannulae are inserted into the stomachs of beagle dogs (10-12 kg.) just orad to the pyloric gland area near the greater curvature to provide a chronic gastric fistula. Animals are allowed to recover for at least two months before any testing is done. Dogs are fasted overnight (~18 hours) with water ad lib prior to each experiment. The dogs are placed in a sling and an eight inch inside needle catheter (C. R. Baird, Inc.) with a two inch 17 gauge needle is inserted into a leg vein for purposes of drug administration. Gastric secretions are collected every 15 minutes by gravity drainage from the opened cannula. […] A modification of the procedure described by Grossman and Konturek, Gastroenterology, 66, 517 (1974) was followed. […] Each 15 minute sample of gastric juice is measured to the nearest 0.5 ml. and titratable acidity against 0.02 N NaOH (endpoint pH 7.0) is measured with an Autoburet and pH meter (radiometer).The percent inhibition of acid output is calculated as described in the pylorus ligated rat procedure.

peptic ulcer disease = conditions: Gray et al., Lancet, 1 (8001), 4 (1977); cited from earlier work
histamine H2-receptors [5] = biological target: T1, histamine H2-receptors; conditions: Black et al., Nature, 236, 385 (1972); cited from earlier work
gastric secretion = conditions: animals and man; cited from earlier work
gastric acid output = assay: Gastric antisecretory activity in the two hour pylorus ligated (Shay) rat; type: in vivo, rat (male Long Evans)
Source text: The pyloric ligation procedure in the rat was designed by Shay et al., Gastroenterology, 5, 53 (1945) for the study of perforating gastric ulcers; however, as the method became known, it was also employed as a means of studying rat gastric secretion, Shay et al., Gastroenterology, 26, 906 (1954), Brodie, D. A., Am. J. Dig. Dis., 11, 231 (1966). A modification of this procedure is presently used to evaluate compounds for gastric antisecretory activity.
Male Long Evans rats, 280-300 gm., are used. The animals are placed in individual cages and fasted for 24 hours with free access to water. Under ether anesthesia, the stomach is reached through a midline incision, and a cotton-thread ligature is placed around the pylorus. […] All compounds are solubilized with one equivalent of HCl and brought to the proper volume with water. The animals are returned to their cages from which the water bottles have been removed and two hours later are sacrificed with ether. The stomach is removed and the two hour gastric collection is drained into a graduated test tube for volume determination. Titratable acidity is measured by titrating a one ml. sample to pH 7.0 with 0.02 N NaOH, using an Autoburet and an electrometric pH meter (Radiometer). […] The percent inhibition of acid output is calculated as follows [formula]

**Q.** Which results are given for `CNC(=C[N+](=O)[O-])NCCSCc1nc[nH]c1C` [Compound XII]?
**A.** Histamine ED50 after test compound (histamine H2-receptors [1]): 4.30 µg/mL; Concentration-Response Curve Displacement Factor (histamine H2-receptors [1]): 17.92

**Q.** Which results are given for `CNC(=S)NCCSCc1nc[nH]c1C` [Metiamide]?
**A.** Toxicity (agranulocytosis) (in words) [2]: toxicity (agranulocytosis); Oral absorption / oral activity (in words) [3]: orally active in man; Potency as H2 antagonist (in words) (H2-receptor): more potent than burimamide

**Q.** Which “Percent Inhibition Acid Output” value [4] does the source give for `CNC(=NC#N)NCCSCc1nc[nH]c1C` [Cimetidine] here?
**A.** 53%

**Q.** What about the “Effectiveness in peptic ulcer disease (in words)” value (peptic ulcer disease) of the same molecule?
**A.** an effective therapeutic agent in the treatment of peptic ulcer disease

**Q.** And the “Toxicity (agranulocytosis) (in words)” value [2]?
**A.** without producing agranulocytosis

**Q.** What about the “Histamine ED50 after test compound” value (histamine H2-receptors [1]) of the same molecule?
**A.** 4.80 µg/mL

**Q.** What about the “Concentration-Response Curve Displacement Factor” value (histamine H2-receptors [1]) of the same molecule?
**A.** 25.26

**Q.** What about the “Potency as H2 antagonist (in words)” value (H2-receptor) of the same molecule?
**A.** as effective an H2 antagonist as metiamide

**Q.** What does the source list for `CNC(=S)NCCCCc1cnc[nH]1` [Burimamide]?
**A.** Effect at histamine H2-receptors of guinea pig atria (in words) (histamine H2-receptors [5]): a competitive antagonist of these receptors; Inhibition of gastric secretion (in words) (gastric secretion): inhibits gastric secretion in animals and man; Oral absorption / oral activity (in words) [3]: oral absorption is poor

**Q.** With `C#CCNC(=C[N+](=O)[O-])NCCSCc1[nH]cnc1C` [BL-5949, 1-Nitro-2-(2-propynylamino)-2-{2-[(4-methyl-1H-imidazol-5-yl)methylthio]ethylamino}ethylene] as the molecule, how does the “Percent Inhibition Acid Output” value [4] read?
**A.** 88%

**Q.** And the “Potency as inhibitor of gastric secretion (in words)” value ([4]; dogs)?
**A.** more potent than either cimetidine or Compound XII

**Q.** What about the “Potency relative to Compound XII” value ([4]; iv, dog) of the same molecule?
**A.** 3.8 times

**Q.** What about the “Potency as histamine H2-receptor antagonist (in words)” value (histamine H2-receptors [1]; isolated guinea pig atria) of the same molecule?
**A.** more potent than either cimetidine or Compound XII

**Q.** What about the “Potency relative to Compound XII” value (gastric acid output; ip, rat) of the same molecule?
**A.** 3.7 times

**Q.** And the “Potency as inhibitor of gastric secretion (in words)” value (gastric acid output; rats)?
**A.** more potent than either cimetidine or Compound XII
